Source: publication PMC6152673, “Discovery of Indeno[1,2-c]quinoline Derivatives as Potent Dual Antituberculosis and Anti-Inflammatory Agents” (Molecules : A Journal of Synthetic Chemistry and Natural …, 2017)
≈ marks a conversion by molar mass, not a printed value.

Experiments:
[1] = test system: M. tuberculosis H37Rv (ATCC 27294); test: Anti-Mycobacterium activity, broth microdilution Microplate Alamar Blue Assay (MABA); format: cell-based; settings: MIC = lowest concentration effecting 90% reduction in fluorescence
[2] = test system: fMLF-activated human neutrophils (superoxide anion generation); test: Superoxide anion generation in fMLF-activated human neutrophils; format: cell-based; settings: for IC50: Neutrophil, fMLF/cytochalasin B-activated human neutrophils, mean ± SEM (n = 3); for Inhibitory effect on superoxide anion generation (in words): fMLF-activated human neutrophils
Description: (§1) Superoxide generation and elastase release were carried out according to the procedures described previously. Neutrophils (6 × 10^5/mL) were equilibrated at 37 °C for 2 min and incubated with compounds for 5 min. Neutrophils were then activated by fMLF (100 nM) in the pretreatment of cytochalasin B (1 µg/mL for superoxide generation and 0.5 µg/mL for elastase release) for 10 min. Superoxide anion production was assayed by monitoring the superoxide dismutase-inhibitable reduction of ferricytochrome C. Elastase release was performed using MeO-Suc-Ala-Ala-Pro-Valp-nitroanilide as the elastase substrate.

Vero cells = test: Vero cell viability (MTT, Promega Cell Titer 96)
[3] = test system: fMLF-activated human neutrophils (neutrophil elastase release); test: Neutrophil elastase release in fMLF-activated human neutrophils; format: cell-based; settings: for IC50: Neutrophil, fMLF/cytochalasin B-activated human neutrophils, mean ± SEM (n = 3); for Inhibitory effect on NE release (in words): fMLF-activated human neutrophils
Description: as §1

| Compound | MIC [1] [µg/mL] | melting point [°C] | IC50 [2] [nM] | Survival Rate of Vero Cells @ 20 μg/mL (Vero cells) [%] | IC50 [3] [nM] | Inhibitory effect on superoxide anion generation (in words) [2] | Inhibitory effect on NE release (in words) [3] |
| --- | --- | --- | --- | --- | --- | --- | --- |
| O=C1c2ccccc2-c2c(N3CCOCC3)nc3ccccc3c21 [Compound 3c, 6-(Morpholino-1-yl)-11H-indeno[1,2-c]quinolin-11-one] | 3.12 (≈ 9.86 µM) | 171 to 173 | > 10000 | 91.19 | > 10000 |  |  |
| OC1CCN(c2nc3ccccc3c3c2-c2ccccc2C3)CC1 [Compound 5, 1-(11H-Indeno[1,2-c]quinolin-6-yl)piperidin-4-ol] | 18 (≈ 56.9 µM) |  | 4020 ± 1080 | 85.41 | 5290 ± 480 | weakly active | weakly active |
| COc1ccc2c(c1)C(=O)c1c-2c(N2CCCCC2)nc2ccccc12 [Compound 4b] | > 20 |  | > 10000 | 99.55 | > 10000 |  |  |
| COc1ccc2c(c1)C(=O)c1c-2c(N2CCOCC2)nc2ccccc12 [Compound 4c] | > 20 |  | > 10000 | 94.47 | > 10000 |  |  |
| O=C1c2ccccc2-c2c(N3CCCC(CO)C3)nc3ccccc3c21 (centres unmarked) [Compound 3g, 6-(3-Piperidinemethano-1-yl)-11H-indeno[1,2-c]quinolin-11-one] | 3.07 (≈ 8.91 µM) | 220 to 221 | 2770 ± 470 | 92.25 | 2120 ± 1190 |  |  |
| O=C1c2ccccc2-c2c(N3CCC(O)CC3)nc3ccccc3c21 [Compound 3d, 6-(4-Hydroxypiperidin-1-yl)-11H-indeno[1,2-c]quinolin-11-one] | 2.09 (≈ 6.33 µM) | 208 | 1780 ± 440 | 91.23 | 2200 ± 690 |  |  |
| COc1ccc2c(c1)C(=O)c1c-2c(N2CCCC2)nc2ccccc12 [Compound 4a, 9-Methoxy-6-(pyrrolidin-1-yl)-11H-indeno[1,2-c]quinolin-11-one] | 17 (≈ 51.5 µM) |  | > 10000 | 89.62 | > 10000 |  |  |
| O=C1c2ccccc2-c2c(N3CCCC(O)C3)nc3ccccc3c21 (centres unmarked) [Compound 3e, 6-(3-Hydroxypiperidin-1-yl)-11H-indeno[1,2-c]quinolin-11-one] | 4.97 (≈ 15 µM) | 211 to 212 | 2900 ± 110 | 87.78 | 2800 ± 90 |  |  |
| O=C(N/N=C1\c2ccccc2-c2c(N3CCC(O)CC3)nc3ccccc3c21)c1ccccc1 [Compound 11, (E)-N′-[6-(4-Hydroxypiperidin-1-yl)-11H-indeno[1,2-c]quinolin-11-ylidene]benzohydrazide] | 1.98 (≈ 4.41 µM) | 258 to 259 | 1670 ± 870 | 89.55 | > 10000 |  | inactive |
| NC(=S)N/N=C1\c2ccccc2-c2c(N3CCC(O)CC3)nc3ccccc3c21 [Compound 10, (E)-2-[6-(4-Hydroxypiperidin-1-yl)-11H-indeno[1,2-c]quinolin-11-ylidene]hydrazine Carbothioamide] | > 20 | 304 to 305 | 2410 ± 360 | 80.28 | > 10000 |  |  |
| CO/N=C1\c2ccccc2-c2c(N3CCC(O)CC3)nc3ccccc3c21 [Compound 8, (E)-6-(4-Hydroxypiperidin-1-yl)-11H-indeno[1,2-c]quinolin-11-one O-methyl Oxime] | > 20 | 183 to 184 | 2680 ± 950 | 91.48 | 2130 ± 920 | comparable anti-inflammatory activity | comparable anti-inflammatory activity |
| NC(=O)N/N=C1\c2ccccc2-c2c(N3CCC(O)CC3)nc3ccccc3c21 [Compound 9, (E)-2-[6-(4-Hydroxypiperidin-1-yl)-11H-indeno[1,2-c]quinolin-11-ylidene]hydrazine Carboxamide] | > 20 | 289 to 290 | 3640 ± 1430 | 81.20 | > 10000 |  |  |
| O/N=C1\c2ccccc2-c2c(N3CCC(O)CC3)nc3ccccc3c21 [Compound 7, (E)-6-(4-Hydroxypiperidin-1-yl)-11H-indeno[1,2-c]quinolin-11-one Oxime] | > 20 | 155 to 156 | 830 ± 470 | 84.14 | 1390 ± 640 | comparable anti-inflammatory activity | comparable anti-inflammatory activity |
| O=C1c2ccccc2-c2c(N3CCCCC3)nc3ccccc3c21 [Compound 3b, 6-(Piperidin-1-yl)-11H-indeno[1,2-c]quinolin-11-one] | 4.93 (≈ 15.7 µM) | 165 to 166 | > 10000 | 96.18 | > 10000 |  |  |
| CC1(O)c2ccccc2-c2c(N3CCC(O)CC3)nc3ccccc3c21 (centres unmarked) [Compound 6, 6-(4-Hydroxypiperidin-1-yl)-11-methyl-11H-indeno[1,2-c]quinolin-11-ol] | > 20 | 146 to 147 | > 10000 | 89.83 | > 10000 | inactive | inactive |
| COc1ccc2c(c1)C(=O)c1c-2c(N2CCCC(CO)C2)nc2ccccc12 (centres unmarked) [Compound 4g, 6-[3-(Hydroxymethyl)piperidin-1-yl]-9-methoxy-11H-indeno[1,2-c]quinolin-11-one] | > 20 | 243 to 244 | 680 ± 140 | 87.60 | 460 ± 80 |  |  |
| COc1ccc2c(c1)C(=O)c1c-2c(N2CCC(O)CC2)nc2ccccc12 [Compound 4d, 6-(4-Hydroxypiperidin-1-yl)-9-methoxy-11H-indeno[1,2-c]quinolin-11-one] | 7.74 (≈ 21.5 µM) |  | 2820 ± 300 | 84.72 | 2050 ± 240 |  |  |
| COc1ccc2c(c1)C(=O)c1c-2c(N2CCC(CO)CC2)nc2ccccc12 [Compound 4f, 6-[4-(Hydroxymethyl)piperidin-1-yl]-9-methoxy-11H-indeno[1,2-c]quinolin-11-one] | > 20 | 218 to 219 | 1930 ± 920 | 90.26 | 880 ± 300 |  |  |
| NNC(=O)c1ccncc1 [INH, isoniazid, reference compound] | 0.8 to 1.2 (≈ 5.83 to 8.75 µM) |  |  | 84.80 |  |  |  |
| O=C1c2ccccc2-c2c(N3CCCC3)nc3ccccc3c21 [Compound 3a, 6-(Pyrrolidin-1-yl)-11H-indeno[1,2-c]quinolin-11-one] | 4.56 (≈ 15.2 µM) | 163 to 164 | > 10000 | 88.61 | > 10000 |  |  |
| O=C1c2ccccc2-c2c(N3CCC(CO)CC3)nc3ccccc3c21 [Compound 3f, 6-(4-Piperidinemethano-1-yl)-11H-indeno[1,2-c]quinolin-11-one] | 3.98 (≈ 11.6 µM) | 223 to 224 | 3370 ± 170 | 91.11 | 4500 ± 1320 |  |  |
| O=C(N/N=C1\c2ccccc2-c2c(N3CCC(O)CC3)nc3ccccc3c21)c1ccncc1 [Compound 12, (E)-N′-[6-(4-Hydroxypiperidin-1-yl)-11H-indeno[1,2-c]quinolin-11-ylidene]isonicotino Hydrazide] | 0.96 (≈ 2.14 µM) | 282 to 283 | 1720 ± 230 | 94.25 | 1760 ± 490 |  |  |
| COc1ccc2c(c1)C(=O)c1c-2c(N2CCCC(O)C2)nc2ccccc12 (centres unmarked) [Compound 4e, 6-(3-Hydroxypiperidin-1-yl)-9-methoxy-11H-indeno[1,2-c]quinolin-11-one] | 19.1 (≈ 53 µM) | 191 to 192 | 1890 ± 650 | 87.59 | 2930 ± 700 |  |  |
